The text below walks through data of patent publication US20250186321A1, “FORMULATION USING AMINO ACID AND CARBOXYLIC ACID, ORGANIC SALT, AND COMPOSITION COMPRISING SAME AND USE THEREOF” (MIYOSHI OIL & FAT CO., LTD., priority 2021, published 2025).

Data set [1] is described as follows: Appearance of formulation (state at 25° C.). Type of data set: physicochemical. The protocol:
Formulations 1 to 427 shown in Tables 1A to 1D were prepared by the above-described method using the components (A) and (B) at the compounding molar ratios shown in the tables, and their states at 25° C. were observed.

The nature of data set [2]: Water retention evaluation (moisture reduction rate). The settings on record: for Moisture eduction rate / Moisture content before test (A): 80 wt. % aqueous solution; for Moisture eduction rate: 24 hours at 35° C. and 25% RH, calculated from A and B; for Moisture content before test (A): Karl Fischer; for Presence or absence of hydrates: left until the moisture content remained unchanged, based on final moisture content; for n-hydrate: number of hydrated water based on final moisture content. In kind it is physicochemical. Here is the method:
80 wt. % aqueous solutions of the formulations (organic salts) of the working examples 428 to 459 and comparative examples 1 to 5 in Tables 2A and 2B were prepared, and the water contents were measured using a Karl Fischer moisture meter (CA-200 manufactured by Mitsubishi Chemical Analytech Co., Ltd.). It was confirmed that the water contents of them were 20.0 wt. % (moisture content before test: A). Each of the 1.0 g samples was added to a screw tube, and left uncovered to stand still for 24 hours in a constant temperature and humidity bath (KCL-2000W manufactured by Tokyo Rikakikai Co., Ltd.) which was set at 35° C. and 25% RH. Moisture contents after being left for 24 hours were measured again (moisture content after test: B) to evaluate their water retention property by using the following formula for calculating the moisture reduction rates. After that, it was left to stand still until the moisture content remained unchanged, and determinations of the hydrate and the number of hydrated water were made based on the final moisture contents. • Moisture content before test: A (%) • Moisture content after test: B (%)

Data set [3] in a line: Appearance of formulation (state at 25° C.). In kind it is physicochemical. The following applies: formulation at the compounding molar ratio listed.
Data set [4] is described as follows: Hygroscopicity evaluation (moisture content). The following applies: for Hygroscopicity test Moisture content after test: dried in vacuum at 60° C. for 18 hours, then 1 month at room temperature, Karl Fischer; for Presence or absence of hydrates / n-hydrate: hygroscopicity test, Table 3. In kind it is physicochemical. The protocol: The working examples 460 to 470 and the comparative example 6 in Table 3 were completely dried in a vacuum dryer at 60° C. for 18 hours, and then left to stand still at room temperature for 1 month whose moisture contents were then measured using a Karl Fischer moisture meter (CA-200 manufactured by Mitsubishi Chemical Analytech Co., Ltd.) to evaluate their hygroscopicity.

The conditions of data set [5]: Component (A) amino acid; cited from earlier work.
The mark [6] stands for this setting: 25° C., components (A) and (B) at the compounding molar ratio shown.
[7] abbreviates: Tables 1C-1 to 1D, compounding molar ratio (Component (A):Component (B)) 1:1.

For the compound `CCCCCC(=O)O.NCCCC[C@H](N)C(=O)O` [Formulation 4], in data set [1] (setting [6]), the “state at 25° C.” value was “Solid”. For the same compound, in data set [2], the Moisture eduction rate is on record as 60.2%, the “Moisture content before test (A)” value was 20.0% and the “Presence or absence of hydrates” value is “Absent”. In data set [3] (Tables 2A/2B), the “state at 25° C.” value is “Solid”.

Turning to `CCCCCCCC/C=C\CCCCCCCC(=O)O.NCCCC[C@H](N)C(=O)O` [Formulation 7], in data set [1] (setting [6]), the “state at 25° C.” value is recorded as “Solid”. Further, in data set [4], the “Hygroscopicity test Moisture content after test” value came to 2.1%, the “Presence or absence of hydrates” value is recorded as “Present” and the n-hydrate entry is reported as “Multihydrate”. Further, in data set [3] (Table 3), the “state at 25° C.” value is “Solid”.

For `NCCCC[C@H](N)C(=O)O.O=C(O)[C@H](O)[C@@H](O)[C@H](O)[C@H](O)CO` [Formulation 9], the “state at 25° C.” value in data set [1] (setting [6]) is on record as “Liquid”. The “state at 25° C.” value in data set [1] (25° C., components (A) and (B) at the compounding molar ratio shown, listed as Working example 9) is “liquid”. In addition, in data set [2], the Moisture eduction rate is on record as 22.9%, the “Moisture content before test (A)” value is reported as 20.0%, the “Presence or absence of hydrates” value is given as “Present” and the n-hydrate result was “Dihydrate”. In addition, in data set [3] (Tables 2A/2B), the “state at 25° C.” value was “Liquid”.

Turning to `NCCCC[C@H](N)C(=O)O.O=C(O)[C@H](O)[C@@H](O)[C@H](O)[C@H](O)CO.O=C(O)[C@H](O)[C@@H](O)[C@H](O)[C@H](O)CO` [Formulation 30], the “state at 25° C.” value in data set [1] (setting [6]) is “Liquid”. For the same compound, the “state at 25° C.” value in data set [1] (25° C., components (A) and (B) at the compounding molar ratio shown, listed as Working example 30) was “liquid”. In data set [2], the Moisture eduction rate is listed as 42.7%, the “Moisture content before test (A)” value was 20.0% and the “Presence or absence of hydrates” value is “Present”. In data set [3] (Tables 2A/2B), the “state at 25° C.” value was “Liquid”.

Regarding `NCCCC[C@H](N)C(=O)O.NCCCC[C@H](N)C(=O)O.NCCCC[C@H](N)C(=O)O.O=C(O)CC(O)(CC(=O)O)C(=O)O.O=C(O)CC(O)(CC(=O)O)C(=O)O` [Formulation 37], the “state at 25° C.” value in data set [1] (setting [6]) was “Liquid”. Further, in data set [1] (25° C., components (A) and (B) at the compounding molar ratio shown, listed as Working example 37), the “state at 25° C.” value is “liquid”. In data set [2], the Moisture eduction rate was 22.4%, the “Moisture content before test (A)” value is listed as 20.0%, the “Presence or absence of hydrates” value is on record as “Present” and the n-hydrate result is on record as “Dihydrate”. Besides, in data set [3] (Tables 2A/2B), the “state at 25° C.” value is “Liquid”.

Consider `N=C(N)NCCC[C@H](N)C(=O)O.O=C(O)[C@H](O)[C@@H](O)[C@H](O)[C@H](O)CO` [Formulation 51], for which the “state at 25° C.” value in data set [1] (setting [6]) is “Liquid”. Moreover, in data set [2], the Moisture eduction rate is given as 23.7%, the “Moisture content before test (A)” value was 20.0%, the “Presence or absence of hydrates” value is “Present” and the n-hydrate entry is reported as “Mono-”. In data set [3] (Tables 2A/2B), the “state at 25° C.” value is on record as “Liquid”.

On to `CC(O)C(=O)O.N=C(N)NCCC[C@H](N)C(=O)O` [Formulation 52], for which the “state at 25° C.” value in data set [1] (setting [6]) is reported as “Liquid”. Moreover, in data set [2], the Moisture eduction rate is reported as 24.3%, the “Moisture content before test (A)” value was 20.0%, the “Presence or absence of hydrates” value is “Present” and the n-hydrate entry is on record as “Mono-”. Also, the “state at 25° C.” value in data set [3] (Tables 2A/2B) was “Liquid”.

Consider `N=C(N)NCCC[C@H](N)C(=O)O.O=C(O)CC(O)(CC(=O)O)C(=O)O` [Formulation 58], for which the “state at 25° C.” value in data set [1] (setting [6]) is “Liquid”. In addition, in data set [2], the Moisture eduction rate is given as 21.8%, the “Moisture content before test (A)” value turned out to be 20.0% and the “Presence or absence of hydrates” value was “Present”. Further, in data set [3] (Tables 2A/2B), the “state at 25° C.” value is “Liquid”.

Consider `CCCCCCCC/C=C\CCCCCCCC(=O)O.CCCCCCCC/C=C\CCCCCCCC(=O)O.N=C(N)NCCC[C@H](N)C(=O)O` [Formulation 70], for which the “state at 25° C.” value in data set [1] (setting [6]) was “Liquid”. Further, in data set [4], the “Hygroscopicity test Moisture content after test” value is 9.4%, the “Presence or absence of hydrates” value was “Present” and the n-hydrate result is reported as “Multihydrate”. For the same compound, the “state at 25° C.” value in data set [3] (Table 3) is given as “Liquid”.

`N[C@@H](Cc1c[nH]cn1)C(=O)O.O=C(O)[C@H](O)[C@@H](O)[C@H](O)[C@H](O)CO` [Formulation 93]: the “state at 25° C.” value in data set [1] (setting [6]) was “Liquid”. Besides, in data set [1] (25° C., components (A) and (B) at the compounding molar ratio shown, listed as Working example 93), the “state at 25° C.” value was “liquid”. Moreover, in data set [2], the Moisture eduction rate is on record as 20.4%, the “Moisture content before test (A)” value was determined as 20.0% and the “Presence or absence of hydrates” value was “Present”. In data set [3] (Tables 2A/2B), the “state at 25° C.” value was “Liquid”.

On to `NCC(=O)O.O=C(O)CC(O)(CC(=O)O)C(=O)O` [Formulation 142], for which, in data set [1] (setting [6]), the “state at 25° C.” value is “Liquid”. In addition, the “state at 25° C.” value in data set [1] (25° C., components (A) and (B) at the compounding molar ratio shown, listed as Working example 142) is on record as “liquid”. Moreover, in data set [2], the Moisture eduction rate was 32.2%, the “Moisture content before test (A)” value is reported as 20.0%, the “Presence or absence of hydrates” value is reported as “Present” and the n-hydrate result is listed as “Hemi-”. The “state at 25° C.” value in data set [3] (Tables 2A/2B) is recorded as “Liquid”.

`NCCCC(=O)O.O=C(O)[C@H](O)[C@@H](O)[C@H](O)[C@H](O)CO` [Formulation 175]: the “state at 25° C.” value in data set [1] (setting [6]) was “Liquid”. Further, the “state at 25° C.” value in data set [1] (25° C., components (A) and (B) at the compounding molar ratio shown, listed as Working example 175) was “liquid”. For the same compound, in data set [2], the Moisture eduction rate was 36.7%, the “Moisture content before test (A)” value was 20.0%, the “Presence or absence of hydrates” value is reported as “Present” and the n-hydrate result is “Mono-”. Moreover, in data set [3] (Tables 2A/2B), the “state at 25° C.” value is given as “Liquid”.

Take `N[C@@H](CO)C(=O)O.O=C(O)[C@H](O)[C@@H](O)[C@H](O)[C@H](O)CO` [Formulation 243]: the “state at 25° C.” value in data set [1] (setting [6]) is listed as “Liquid”. Also, the “state at 25° C.” value in data set [1] (25° C., components (A) and (B) at the compounding molar ratio shown, listed as Working example 243) is listed as “liquid”. In data set [2], the Moisture eduction rate is given as 41.6%, the “Moisture content before test (A)” value was found to be 20.0%, the “Presence or absence of hydrates” value was “Present” and the n-hydrate entry is on record as “Mono-”. In addition, the “state at 25° C.” value in data set [3] (Tables 2A/2B) was “Liquid”.

Take `NC(CCC(=O)O)C(=O)O.O=C(O)CC(O)C(=O)O` (centres unmarked) [Formulation 422]: the “state at 25° C.” value in data set [1] (setting [7]) is on record as “Solid”.

For `N[C@@H](CCC(=O)O)C(=O)O.O=C(O)CC(O)(CC(=O)O)C(=O)O` [Formulation 423], in data set [1] (setting [7]), the “state at 25° C.” value is on record as “Solid”.

Consider `N[C@@H](CCC(=O)O)C(=O)O.O=C(O)C(O)C(O)C(=O)O` [Formulation 424], for which the “state at 25° C.” value in data set [1] (setting [7]) was “Solid”.

Take `N[C@@H](CCC(=O)O)C(=O)O.O=C(O)c1ccccc1` [Formulation 425]: the “state at 25° C.” value in data set [1] (setting [7]) is listed as “Solid”.

Take `N[C@@H](CCC(=O)O)C(=O)O.O=C1O[C@H]([C@@H](O)CO)C(O)=C1O` [Formulation 426]: in data set [1] (setting [7]), the “state at 25° C.” value was “Solid”.

`NC(CCC(=O)O)C(=O)O.O=C1OC(C(O)CO)C(O)=C1O` (centres unmarked) [Formulation 427]: in data set [1] (setting [7]), the “state at 25° C.” value was “Solid”.

As for `Cl.NCCCC[C@H](N)C(=O)O` [Formulation 429], in data set [2], the Moisture eduction rate is 68.2%, the “Moisture content before test (A)” value was determined as 20.0% and the “Presence or absence of hydrates” value is listed as “Absent”. The “state at 25° C.” value in data set [3] (Tables 2A/2B) is given as “Solid”.

For the compound `CCCCCCCC/C=C\CCCCCCCC(=O)[O-].[Na+]` [Formulation 433, reference compound], the “Hygroscopicity test Moisture content after test” value in data set [4] is 0.0%. In addition, in data set [3] (Table 3), the “state at 25° C.” value was “Solid”.

As to `Cl.O=C(O)[C@@H]1CCCN1` [Formulation 437], the “state at 25° C.” value in data set [1] (25° C.) is “Solid”.

In the case of `O` [Formulation 438], the “state at 25° C.” value in data set [1] (25° C.) is “Liquid”.

Turning to `N[C@@H](CS)C(=O)O` [cysteine], the “isoelectric points of amino acids (values in parentheses)” value (from here on “isoelectric points of amino acids”) in data set [5] is recorded as “(5.07)”.

For the compound `CSCC[C@H](N)C(=O)O` [methionine], the “isoelectric points of amino acids” value in data set [5] was “(5.74)”.

With `N[C@@H](Cc1ccccc1)C(=O)O` [phenylalanine], in data set [5], the “isoelectric points of amino acids” value is reported as “(5.48)”.

For `O=C(O)[C@@H]1CCCN1` [proline], the “isoelectric points of amino acids” value in data set [5] is on record as “(6.30)”.

Consider `N[C@@H](Cc1c[nH]c2ccccc12)C(=O)O` [tryptophan], for which the “isoelectric points of amino acids” value in data set [5] is “(5.89)”.
